Calls of active or inactive are those of the source. The calls are words filed in the database; no cut-off is given here.

This is an account of results in ChEMBL document CHEMBL1800055, “Orally active MMP-1 sparing α-tetrahydropyranyl and α-piperidinyl sulfone matrix metalloproteinase (MMP) inhibitors with efficacy in cancer, arthritis, and cardiovascular disease” (J Med Chem, 2010).

For data set [1], the target named is Matrix metalloproteinase-14 (Homo sapiens, UniProt P50281).
The target of data set [2] is Neutrophil collagenase (Homo sapiens, UniProt P22894).
For data set [3], the target named is Stromelysin-1 (Homo sapiens, UniProt P08254).
Data set [4] in a line: Oral bioavailability in rat at 20 mg/kg. The class given is ADME, organism-based. Conditions: in vivo.
The test system of data set [5] is Rattus norvegicus. Put plainly: Plasma concentration in rat at 20 mg/kg, po. Details: dose 20 mg/kg, route oral. Format: ADME, organism-based. Conditions: in vivo.
A short description of data set [6]: Half life in rat at 20 mg/kg, po. The class given is ADME, organism-based. Details: dose 20 mg/kg, route oral. Particulars: in vivo.
Data set [7] is described as follows: Cmax in rat at 20 mg/kg, po. Format: ADME, organism-based. Details: dose 20 mg/kg, route oral. Particulars: in vivo.
Data set [8] addresses 72 kDa type IV collagenase (Homo sapiens, UniProt P08253).
In data set [9] the target is Collagenase 3 (Homo sapiens, UniProt P45452).
Data set [10] addresses T1, Interstitial collagenase (Homo sapiens, UniProt P03956).
T1 sequence (P03956 whole entry): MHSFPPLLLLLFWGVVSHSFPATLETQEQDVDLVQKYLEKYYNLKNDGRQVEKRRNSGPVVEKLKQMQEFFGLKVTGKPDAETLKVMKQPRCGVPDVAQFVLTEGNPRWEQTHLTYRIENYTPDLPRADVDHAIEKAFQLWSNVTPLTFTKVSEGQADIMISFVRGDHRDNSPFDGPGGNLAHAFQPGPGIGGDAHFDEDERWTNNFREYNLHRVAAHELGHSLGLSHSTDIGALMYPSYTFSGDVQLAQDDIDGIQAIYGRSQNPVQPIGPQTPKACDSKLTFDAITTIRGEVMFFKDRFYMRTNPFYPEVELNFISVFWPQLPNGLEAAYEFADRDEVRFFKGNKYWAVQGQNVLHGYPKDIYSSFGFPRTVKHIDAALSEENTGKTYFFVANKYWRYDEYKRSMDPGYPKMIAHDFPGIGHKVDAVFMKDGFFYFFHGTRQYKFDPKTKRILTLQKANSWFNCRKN
Format: cell-based, HT-1080.

Data set [11] deals with T2, Matrilysin (Homo sapiens, UniProt P09237).
T2 sequence (P09237 whole entry): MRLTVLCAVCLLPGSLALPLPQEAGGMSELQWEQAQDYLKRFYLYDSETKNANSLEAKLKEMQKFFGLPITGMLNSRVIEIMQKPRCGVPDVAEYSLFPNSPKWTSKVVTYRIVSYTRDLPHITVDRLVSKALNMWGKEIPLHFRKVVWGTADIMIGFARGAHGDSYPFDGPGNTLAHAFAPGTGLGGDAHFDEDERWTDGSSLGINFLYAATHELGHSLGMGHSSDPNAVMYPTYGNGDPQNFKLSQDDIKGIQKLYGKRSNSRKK

The subject of data set [12] is Cartilage tissue. Put plainly: Ex vivo inhibition of IL-1 and oncostatin M-induced bovine nasal cartilage degradation assessed as release of hydroxproline measured up to 16 days by mass spectrometry. Format: functional, tissue-based. Particulars: Bos taurus, 384 h.
Data set [13] has as its target Matrix metalloproteinase-9 (Homo sapiens, UniProt P14780).
A short description of data set [14]: Oral bioavailability in rat at 10 mg/mL. Format: ADME, organism-based. Particulars: in vivo.
The subject of data set [15] is Rattus norvegicus. In words: Plasma concentration in rat at 10 mg/mL, iv and po. The class given is ADME, organism-based. Conditions: in vivo.
A short description of data set [16]: Half life in rat at 10 mg/mL, iv and po. The class given is ADME, organism-based. Conditions: in vivo.
Data set [17] in a line: Cmax in rat at 10 mg/mL, iv and po. Format: ADME, organism-based. Conditions: in vivo.
Data set [18] has as its system Mus musculus. In words: Toxicity in mouse assessed as mortality administered bid for 90 days. Particulars: in vivo, 2160 h. Format: organism-based.
For data set [19], the system named is MX1. Put plainly: Antitumor activity against human MX1 cells xenografted in cyclophosphamide-treated nude mouse adjuvant model assessed as increase in mouse survival time at 6 to 50 mg/kg, po BID measured up to 90 days. The class given is functional, organism-based. In general terms: In xenograft studies the graft and the host belong to different species.
Data set [20] has as its system PC-3. Put plainly: Antitumor activity against human PC3 cells xenografted in BALB/c nu/nu mouse assessed as tumor growth inhibition at 100 mg/kg, po BID measured on 25 to 30 days relative to control. Format: functional.
Data set [21] has as its system PC-3. Put plainly: Antitumor activity against human PC3 cells xenografted in po dosed BALB/c nu/nu mouse assessed as tumor growth inhibition administered BID measured on 25 to 30 days. The class given is functional, organism-based.
Data set [22] deals with Rattus norvegicus. In words: Cardioprotective activity in rat myocardial infarction model assessed inhibition of left ventricular dilation at 50 mg/kg, po qd for 4 weeks (reference value: 0.69 +/- 0.02 mL). The class given is functional, Heart left ventricle.
Data set [23] relates to PC-3. In words: Antitumor activity against human PC3 cells xenografted in BALB/c nu/nu mouse assessed as tumor growth inhibition at 200 mg/kg, po BID measured on 25 to 30 days relative to control. The class given is functional.
For data set [24], the system named is PC-3. Put plainly: Antitumor activity against human PC3 cells xenografted in BALB/c nu/nu mouse assessed as tumor growth inhibition at 25 mg/kg, po BID for 30 days measured on 25 to 30 days relative to control. Format: functional.

Chain of Neutrophil collagenase (P22894 whole entry): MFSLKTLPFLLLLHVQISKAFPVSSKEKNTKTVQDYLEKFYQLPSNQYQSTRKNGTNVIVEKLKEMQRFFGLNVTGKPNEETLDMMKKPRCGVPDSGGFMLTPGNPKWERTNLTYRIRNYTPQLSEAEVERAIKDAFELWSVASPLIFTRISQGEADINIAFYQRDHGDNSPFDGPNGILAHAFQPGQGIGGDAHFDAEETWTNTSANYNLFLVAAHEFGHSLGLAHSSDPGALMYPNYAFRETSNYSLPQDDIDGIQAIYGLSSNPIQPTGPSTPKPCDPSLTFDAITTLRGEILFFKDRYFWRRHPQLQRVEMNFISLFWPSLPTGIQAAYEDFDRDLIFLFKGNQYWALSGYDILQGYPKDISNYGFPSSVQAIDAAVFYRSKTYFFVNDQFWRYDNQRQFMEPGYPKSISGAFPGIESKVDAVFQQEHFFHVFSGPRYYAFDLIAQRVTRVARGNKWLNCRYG
Chain of 72 kDa type IV collagenase (P08253 whole entry): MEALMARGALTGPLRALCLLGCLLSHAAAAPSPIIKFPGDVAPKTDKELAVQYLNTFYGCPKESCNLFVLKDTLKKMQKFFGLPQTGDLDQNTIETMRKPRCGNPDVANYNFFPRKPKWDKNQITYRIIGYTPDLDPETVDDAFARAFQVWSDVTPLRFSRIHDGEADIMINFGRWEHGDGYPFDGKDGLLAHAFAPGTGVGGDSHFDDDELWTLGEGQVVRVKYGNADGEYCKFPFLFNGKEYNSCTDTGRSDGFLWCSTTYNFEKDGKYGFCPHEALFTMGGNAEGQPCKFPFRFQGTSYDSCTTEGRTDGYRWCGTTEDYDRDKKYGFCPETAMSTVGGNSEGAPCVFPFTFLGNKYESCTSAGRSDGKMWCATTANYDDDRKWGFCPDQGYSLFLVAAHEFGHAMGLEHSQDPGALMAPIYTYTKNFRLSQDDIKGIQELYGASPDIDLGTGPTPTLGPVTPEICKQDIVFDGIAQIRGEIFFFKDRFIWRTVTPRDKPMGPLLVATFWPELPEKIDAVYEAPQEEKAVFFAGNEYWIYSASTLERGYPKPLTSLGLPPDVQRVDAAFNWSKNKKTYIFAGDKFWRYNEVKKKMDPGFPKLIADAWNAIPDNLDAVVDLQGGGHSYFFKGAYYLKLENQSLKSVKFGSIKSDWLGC
Chain of Stromelysin-1 (P08254 whole entry): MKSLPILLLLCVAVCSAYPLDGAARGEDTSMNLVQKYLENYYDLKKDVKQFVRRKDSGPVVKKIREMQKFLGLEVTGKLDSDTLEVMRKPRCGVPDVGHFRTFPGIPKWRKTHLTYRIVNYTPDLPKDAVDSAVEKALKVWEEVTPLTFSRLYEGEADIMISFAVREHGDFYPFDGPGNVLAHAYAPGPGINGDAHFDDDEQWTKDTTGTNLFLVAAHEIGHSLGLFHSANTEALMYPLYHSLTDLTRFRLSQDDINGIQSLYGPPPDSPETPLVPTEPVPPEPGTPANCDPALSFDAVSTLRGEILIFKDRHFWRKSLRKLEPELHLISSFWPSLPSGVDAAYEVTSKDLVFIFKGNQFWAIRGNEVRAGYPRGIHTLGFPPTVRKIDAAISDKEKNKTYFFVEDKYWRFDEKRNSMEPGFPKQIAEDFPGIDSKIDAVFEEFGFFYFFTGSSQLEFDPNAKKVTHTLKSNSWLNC
Chain of Matrix metalloproteinase-9 (P14780 whole entry): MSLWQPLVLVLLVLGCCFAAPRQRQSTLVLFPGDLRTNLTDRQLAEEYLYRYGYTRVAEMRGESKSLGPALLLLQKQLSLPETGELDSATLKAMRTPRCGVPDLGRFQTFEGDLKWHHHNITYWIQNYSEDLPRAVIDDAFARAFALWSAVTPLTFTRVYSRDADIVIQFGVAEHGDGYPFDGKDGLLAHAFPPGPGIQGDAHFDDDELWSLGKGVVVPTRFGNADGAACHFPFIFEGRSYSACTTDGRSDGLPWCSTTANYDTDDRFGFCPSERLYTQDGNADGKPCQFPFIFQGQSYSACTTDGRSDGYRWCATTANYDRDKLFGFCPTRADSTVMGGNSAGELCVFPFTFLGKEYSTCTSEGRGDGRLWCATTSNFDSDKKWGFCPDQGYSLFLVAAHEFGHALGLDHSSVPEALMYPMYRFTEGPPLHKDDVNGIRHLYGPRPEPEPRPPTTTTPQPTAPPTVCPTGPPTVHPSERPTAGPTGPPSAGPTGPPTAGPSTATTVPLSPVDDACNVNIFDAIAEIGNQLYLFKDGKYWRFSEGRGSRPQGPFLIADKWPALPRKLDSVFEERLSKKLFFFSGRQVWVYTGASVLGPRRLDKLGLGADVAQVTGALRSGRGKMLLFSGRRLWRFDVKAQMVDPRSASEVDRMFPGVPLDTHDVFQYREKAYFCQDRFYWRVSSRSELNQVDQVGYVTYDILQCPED

As a reminder, the IC50 is the concentration at which inhibition is half-maximal. By bioavailability is commonly meant the share of a dose that reaches the circulation, judged against a reference dose that is usually intravenous. A higher bioavailability goes with good availability. In general, half-life refers to the time in which the quantity being followed falls by half. Low values mean rapid decline, high ones slow decline. As a reminder, the Cmax is the peak of the concentration-time curve. Turning to `CC(=O)N1CCC(C(=O)NO)(S(=O)(=O)c2ccc(Oc3ccc(OC(F)(F)F)cc3)cc2)CC1`, the IC50 in data set [1] came to 9 nM; in data set [2], 1.6 nM; in data set [3], 18.1 nM. In data set [4], this compound came in with a bioavailability of 4%. The Cp in data set [5] stood at 72 ng/mL. The compound also had a half-life in data set [6] of 1.06 h. For the same compound, the Cmax in data set [7] was determined as 159 ng/mL.
Take `O=C(NO)C1(S(=O)(=O)c2ccc(Oc3ccc(C(F)(F)F)cc3)cc2)CCNCC1`: the IC50 is 160 nM in [1]; 2 nM in data set [2]; 64.7 nM in [3]; 1.7 nM in [8]; 1.2 nM in data set [9]; over 10000 nM in data set [10]. The bioavailability in [4] amounted to 12.4%. The compound also registered a Cp in [5] of 150 ng/mL. Further, in data set [6], the half-life is 1.88 h. The compound also registered a Cmax in data set [7] of 540 ng/mL.
For `O=C(NO)C1(S(=O)(=O)c2ccc(Oc3ccc(OC(F)(F)F)cc3)cc2)CCN(Cc2ccccn2)CC1`, the IC50 in data set [2] is 0.6 nM; in [3], 115 nM; in data set [11], over 10000 nM; in data set [9], under 0.1 nM; in [10] it was 6000 nM. In data set [4], this compound gave a bioavailability of 46.8%. In addition, the Cp in data set [5] amounted to 1850 ng/mL. In data set [6], this compound showed a half-life of 1.25 h. Besides, the peak concentration (Cmax) in data set [7] was 36800 ng/mL.
As to `O=C(NO)C1(CS(=O)(=O)c2ccc(Oc3ccc(Cl)cc3)cc2)CCOCC1` [CTS-1027], in data set [12], the 50% inhibitory concentration (IC50) came out at 30 nM.
`CC(C)Oc1ccc(Oc2ccc(S(=O)(=O)C3(C(=O)NO)CCOCC3)cc2)cc1`: the half-inhibitory concentration (IC50) in data set [1] was 10.5 nM; in data set [8], under 0.1 nM; in data set [13], under 0.1 nM; in data set [9], 0.1 nM; in data set [10], 300 nM.
Consider `O=C(NO)C1(S(=O)(=O)c2ccc(Oc3ccc(C(F)(F)F)cc3)cc2)CCOCC1`, for which the IC50 in data set [2] is 9.4 nM; in data set [3], 22 nM; in data set [8], 0.1 nM; in [11], over 10000 nM; in data set [12], 70 nM; in [9], 0.4 nM. Further, the half-inhibitory concentration (IC50) in data set [10] was determined as 8000 nM. This compound also gave a bioavailability in data set [14] of 33%. In data set [15], this compound showed a Cp of 1154 ng/mL. This compound gave a half-life in data set [16] of 2.68 h. For the same compound, in [17], the Cmax is 4300 ng/mL.
Turning to `O=C(NO)C1(S(=O)(=O)c2ccc(Oc3ccc(O)cc3)cc2)CCOCC1`, the IC50 in data set [1] was 1.71 nM; in data set [8], 0.2 nM; in data set [13], under 0.1 nM; in [9], 0.3 nM; in [10], 400 nM.
Consider `O=C(NO)C1(S(=O)(=O)c2ccc(Oc3cccc(Cl)c3)cc2)CCOCC1`, for which the values for the IC50 in [1], in [2] and in data set [3] were 4.5 nM, 1.8 nM and 18.1 nM, respectively.
Turning to `O=C(NO)C1(S(=O)(=O)c2ccc(Oc3ccc(C(F)(F)F)cc3)cc2)CCN(C2CC2)CC1`, the concentration for half-maximal inhibition (IC50) in [2] is 1.3 nM; in data set [3], 76.8 nM; in [8] it was 0.1 nM; in [11], over 10000 nM. In [4], this compound returned a bioavailability of 36.3%. This compound displayed a Cp in [5] of 631 ng/mL. Further, the half-life in [6] was 1.48 h. In data set [7], this compound had a maximum concentration (Cmax) of 8320 ng/mL.
The term inhibition in vivo denotes the percentage by which the read-out fell short of the control. For the compound `O=C(NO)C1(S(=O)(=O)c2ccc(Oc3ccc(OC(F)(F)F)cc3)cc2)CCN(C2CC2)CC1`, the half-inhibitory concentration (IC50) in data set [2] is 1.2 nM; in data set [3], 22 nM; in [8], under 0.1 nM; in [11], 7000 nM; in data set [12] it was 10 nM; in data set [10], 4000 nM. The Activity entry in [18] is “Non-toxic”; in [22], 0.62 mL. In addition, the bioavailability in data set [4] stood at 23%. Further, the result in [19] was Active. Moreover, the Cp in data set [5] is 440 ng/mL. In [6], this compound showed a half-life of 2.85 h. Besides, the inhibition in vivo at 100 mg/kg in data set [20] is 65%. The inhibition result in data set [21] was “Dose-dependent effect”. The inhibition in vivo at 200 mg/kg in data set [23] turned out to be 65%. In [24], the inhibition in vivo at 25 mg/kg came out at 49%. For the same compound, the highest concentration (Cmax) in data set [7] came out at 4160 ng/mL.
Consider `O=C(NO)C1(S(=O)(=O)c2ccc(Oc3ccc(OC(F)(F)F)cc3)cc2)CCOCC1`, for which the results for the half-maximal inhibitory concentration (IC50) in data set [1], in data set [2] and in data set [3] were 10.6 nM, 0.9 nM and 35 nM, respectively. In data set [14], the bioavailability was found to be 35.9%. For the same compound, in data set [15], the Cp turned out to be 1172 ng/mL. This compound gave a half-life in data set [16] of 1.87 h. In [17], this compound displayed a maximum concentration (Cmax) of 8580 ng/mL.
Take `COCCN1CCC(C(=O)NO)(S(=O)(=O)c2ccc(Oc3ccc4c(c3)OCO4)cc2)CC1`: the IC50 in data set [1] was 4 nM; in data set [2], 1.2 nM; in [3] it was 20 nM; in [8], 0.25 nM; in data set [9] it was 0.2 nM; in data set [10], 2400 nM.
With `O=C(NO)C1(S(=O)(=O)c2ccc(Oc3ccc(OC(F)(F)F)cc3)cc2)CCN(Cc2cccnc2)CC1`, the IC50 in data set [2] was 1.5 nM; in data set [3], 42.5 nM; in data set [8], under 0.1 nM; in data set [11] it was over 10000 nM; in [9], 0.2 nM; in data set [10] it was 4600 nM. For the same compound, the bioavailability in data set [4] came to 49.8%. This compound had a Cp in [5] of 1900 ng/mL. The compound further gave a half-life in [6] of 1.05 h. For the same compound, in data set [7], the Cmax is 52600 ng/mL.
Consider `C#CCN1CCC(C(=O)NO)(S(=O)(=O)c2ccc(Oc3ccc(S(C)(=O)=O)cc3)cc2)CC1`, for which the concentration for half-maximal inhibition (IC50) in [8] is 3.3 nM; in [9] it was 2.9 nM; in data set [10], over 10000 nM. This compound also yielded an Activity in data set [22] of 0.63 mL.
As for `COCCN1CCC(C(=O)NO)(S(=O)(=O)c2ccc(Oc3ccc(SC(F)(F)F)cc3)cc2)CC1`, the IC50 in data set [2] is 1.9 nM; in data set [3], 23.9 nM; in [8], 0.2 nM; in data set [11], 9000 nM; in data set [9] it was 0.2 nM; in [10] it was over 10000 nM. The compound also registered a bioavailability in data set [4] of 34.1%. The same compound returned a Cp in data set [5] of 14078 ng/mL. The compound further gave a half-life in data set [6] of 2.99 h. The peak concentration (Cmax) in [7] is 32900 ng/mL.
